From patent US9206236B2, “Peptides for treating cancer” (Gene Signal International SA, priority 2010, dated 2015)

Key:
[1] = Body weight and toxicity of mice bearing NCI-H460 tumors (Example 3); format: in vivo
Protocol: All experiments were reviewed by the Genopole's institutional animal care and use committee and were performed in accordance with institutional guidelines for animal care. Female BALB/c nu/nu mice (n=30) were used at 5-6 weeks of age. The animals were housed in laminar air-flow cabinets under pathogen-free conditions with a 12 h light/12 h dark schedule, and fed autoclaved standard chow and water ad libitum. […] Tumor cells (10^7 cells in 200 μl of HBSS) were injected subcutaneously into the right flanks of mice. […] At tumor volume about 150 mm^3, animals were randomized, and separated into five groups of five animals. Control mice (group 1) were intraperitoneally injected with vehicle (10% DMSO in buffer saline) every day. GS-0 was dissolved in vehicle and intraperitoneally injected (group 2) every day (12 injections). GS-2 was dissolved in vehicle and intraperitoneally injected (group 3) every day (12 injections). Tumor volume and body weight were measured every other day over the treatment period (12 days).

[2] = system: human microvascular endothelial cells (HMEC); test: In vitro angiogenesis assay (Matrigel tube formation); format: cell-based; settings: 500 μg/ml final concentration of peptide, images at 18 h
Protocol: Angiogenesis of human microvascular endothelial cells (HMEC) was induced in vitro using a Matrigel assay described by Al-Mahmood et al (2009, JPET, 2009; 58:933). This method is based on the differentiation of endothelial cells to form capillary structures on a Matrigel Matrix. Matrigel is prepared the Engelbreth-Holm-Swarm (EHS) mouse tumor, which represents a complex mixture of basement membrane proteins including type IV collagen, entactin, proteo-heparan sulfate and other growth factors.
Briefly, 250 μl of Matrigel were transferred to each well of a 24-well culture plate and incubated at 37° C. for 30 min to allow for the matrix solution to solidify. HMEC grown in complete growth medium EGM-2MV were harvested by trypsin, suspended in the same growth medium and 500 μl containing 70 000 cells were added on top of the solidified Matrigel in each well and in the presence or absence of peptide. Cells were maintained in a humidified atmosphere air containing 5% CO2 at 37° C. for 18-24 hrs. Endothelial tube formation was observed and photographed under an inverted light microscope.
The designed tyrosine phosphorylated and non phosphorylated peptides were tested for their influence onto the in vitro angiogenesis. The results of the in vitro angiogenesis assay were presented in FIG. 1, using HMEC and 500 μg/ml final concentration of each peptide.

NCI-H460 tumors = test: NCI-H460 tumor xenograft in nude mice, tumor volume (Example 2); format: in vivo
Protocol: H460 cell line has cytology compatible with human Non-Small Cell Lung Cancer (NSCL). Cells were grown in MEM medium containing 10% FCS at 37° C., 5% CO2 humidified atmosphere. The absence of mycoplasms was confirmed by using the PCR Mycoplasma Detection kit (Takara). All experiments were reviewed by the Genopole's institutional animal care and use committee and were performed in accordance with institutional guidelines for animal care. Female BALB/c nu/nu mice (n=30) were used at 5-6 weeks of age. The animals were housed in laminar air-flow cabinets under pathogen-free conditions with a 12 h light/12 h dark schedule, and fed autoclaved standard chow and water ad libitum. The NCI-H460 human NSCL cell line was obtained from American Type Culture Collection (ATCC) and cells were grown in RPMI medium 1640 supplemented with 1 μM sodium pyruvate. Tumor cells (10^7 cells in 200 μl of HBSS) were injected subcutaneously into the right flanks of mice. After engraftment, tumor volume was measured by Vernier callipers, and calculated as described in Balsari A et al. (Balsari A et al. (2004) Eur J Cancer 40: 1275-1281). At tumor volume about 150 mm3, animals were randomized, and separated into five groups of five animals. Control mice (group 1) were intraperitoneally injected with vehicle (10% DMSO in buffer saline) every day. GS-0 was dissolved in vehicle and intraperitoneally injected (group 2) every day (12 injections). GS-1 was dissolved in vehicle and intraperitoneally injected (group 3) every day (12 injections). Tumor volume and body weight were measured every other day over the treatment period (12 days). GS-1 as well as the control peptide GS-0 were solubilized in DMSO and the resulting solutions were diluted 10 times with phosphate buffer saline (PBS) to obtain a concentration of 1 mg of peptide/ml of 10% DMSO in PBS. At this concentration, all peptides were soluble in 10% DMSO.

mTOR = mTOR status in HMEC after incubation with peptides (anti-mTor antibody Ser2448); format: cell-based, human
Protocol: Human EC grown in EGM-2MV (80% confluence) were incubated with the peptides of the invention or vehicle for the indicated time, washed three times in cold PBS and directly lysed in 2 ml of ice-cold lysis buffer (10 mM Tris pH 7.5, 150 mM NaCl, 1 mM PMSF, 0.5 μg/ml leupeptin, 1 μg/ml pepstatin A, and 1 μg/ml aprotinin) by incubation for 30 min at 4° C. Cell lysate were spun at […] for 10 min, insoluble materials were discarded, and protein contents measured by Bradford assay of supernatants were adjusted. Cell lysate (1 ml) was precleared with 25 μl of protein G-plus agarose beads (Santa Cruz) for 30 min, and proteins were then immunoprecipitated by adding 2 μg of the indicated antibody and incubated for 1 hr. The immunocomplex was pulled down with protein G-plus agarose beads and the beads were washed three times with lysis buffer. The immunoprecipitates were separated by NuPAGE® 4-12% Bis-Tris gel electrophoresis under reducing conditions, transferred to PVDF membrane (Novex System, Invitrogen), and the membrane was blocked with 5% (w/v) non-fat milk in TBS containing 0.1% v/v Tween-20 for 1 hr.
The status of mTOR in the HMEC following incubation with peptides GS-0 and GS-1 was investigated.

## Ac-NYICMG-NH2 [GS-0, NYICMG, reference compound]
[1]; 8 mg/kg intraperitoneally every day, 12 injections
  toxicity and body weight loss during treatment: No toxicity and no body weight loss
[1]; Table 3, 8 mg/kg i.p. daily, day 1, in g
  Mean body weight D1: 20.91
[1]; Table 3, 8 mg/kg i.p. daily, day 3, in g
  Mean body weight D3: 21.37
[1]; Table 3, 8 mg/kg i.p. daily, day 5, in g
  Mean body weight D5: 21.65
[1]; Table 3, 8 mg/kg i.p. daily, day 7, in g
  Mean body weight D7: 21.81
[1]; Table 3, 8 mg/kg i.p. daily, day 9, in g
  Mean body weight D9: 22.52
[1]; Table 3, 8 mg/kg i.p. daily, day 11, in g
  Mean body weight D11: 22.76
[1]; Table 3, 8 mg/kg i.p. daily, day 13, in g
  Mean body weight D13: 22.36
[2]
  in vitro angiogenesis-inhibitory activity: have not and/or negligible in vitro angiogenesis-inhibitory activity
NCI-H460 tumors; 8 mg/kg i.p. daily for 12 days
  influence on the in vivo growth of the tumor NCI-H460 (in words): no significant influence
NCI-H460 tumors; 8 mg/kg i.p. daily for 12 days, n=5
  mean tumor volume at the end of treatment: 1114.83 ± 534.50 mm^3
NCI-H460 tumors; Table 2, 8 mg/kg i.p. daily, day 1
  Mean tumor volume D1: 123 mm³
NCI-H460 tumors; Table 2, 8 mg/kg i.p. daily, day 3
  Mean tumor volume D3: 233 mm³
NCI-H460 tumors; Table 2, 8 mg/kg i.p. daily, day 5
  Mean tumor volume D5: 335 mm³
NCI-H460 tumors; Table 2, 8 mg/kg i.p. daily, day 7
  Mean tumor volume D7: 402 mm³
NCI-H460 tumors; Table 2, 8 mg/kg i.p. daily, day 9
  Mean tumor volume D9: 553 mm³
NCI-H460 tumors; Table 2, 8 mg/kg i.p. daily, day 11
  Mean tumor volume D11: 751 mm³
NCI-H460 tumors; Table 2, 8 mg/kg i.p. daily, day 13
  Mean tumor volume D13: 1110 mm³
mTOR
  amounts of mTOR in HMEC relative to vehicle: equivalent amounts of mTOR as cell incubated with vehicle
